The assay deals with T1, EPSPS (5-enolpyruvlshikimate-3-phosphate synthase), Golf biotypes.
T1 construct: native enzyme in leaf extract, not purified to homogeneity
The assay is described as follows: EPSPS activity in leaf extract, phosphate release (EnzChek Phosphate Assay). Format: biochemical, Lolium perenne. The note with it: S-Golf biotype; 0-1000 μM glyphosate; log-logistic fit; unit from Methods (table footnote with unit not in the material); read-out: EPSPS activity^c / I50. The source says:
EPSPS activity in leaf extract, phosphate release (EnzChek Phosphate Assay) on EPSPS (5-enolpyruvlshikimate-3-phosphate synthase), Golf biotypes

The structures appear in SMILES notation.

With `O=C(O)CNCP(=O)(O)O` [glyphosate, N-phosphonomethyl glycine], the IC50 is 3.2 ± 0.3 µM.

The values above are taken from PMC5651048, “Differential Resistance Mechanisms to Glyphosate Result in Fitness Cost for Lolium perenne and L. multiflorum” (Frontiers in Plant Science, 2017).
